From US20260317304A1, “TEAD INHIBITORS AND METHODS OF USE” (Sporos BioDiscovery, Inc., priority 2022, published 2026)

Key:
Mero82 cells = assay: Mero82 proliferation and cell viability assay (CTG); format: cell-based; details: 144 hours
Method: Mero 82 cells were trypsinised, counted and plated at 400 cells/well in 200 μl of growth media in 96 well flat bottom tissue culture treated plates. The plated cells were incubated overnight at 37° C., 5% CO2 before being treated with compounds in triplicate for each assay point. 50 μl of the serially diluted compound was added to each well giving a final DMSO concentration of 0.5% per well and a total volume of 250 μl per well. The treated cells were incubated for 144 hours (6 days) at 37° C., 5% CO2. Following compound treatment, the remaining viable cells were detected using the Promega CellTiter-Glo 2.0 assay as follows: 150 μl of media was removed from each of the wells to be assayed and 100 μl of room temperature CellTiter-Glo 2.0 reagent was added. The plate was placed on an orbital shaker at 500 rpm at room temperature for 2 minutes, and then incubated without shaking for a further 10 minutes at room temperature. 150 μl of cell lysate was removed from each well and dispensed into a single well of a white opaque 96 well plate. Luminescence at 545 nm was read using a BMG CLARIOstar plate reader. The luminescent signal was directly proportional to number of viable cells, the percent of viable cells relative to the DMSO control was then calculated for each assay point. Percent viability relative to DMSO control was plotted against compound concentration and a curve fitted with non-linear regression in GraphPad Prism software. EC50 and absolute IC50 values were calculated using GraphPad Prism software as follows: For EC50 values, a non-constrained four-parameter logistic curve fit was used (Sigmoidal, 4PL, X is concentration). For Absolute IC50 values the baseline was constrained to Y=0 and top at 100 (Absolute IC50, X is concentration). Area Under the Curve (AUC): Prism computes area-under-the-curve by the trapezoidal method. The analysis sees a fitted curve as simply a series of connected XY points. Prism simply computes the area under the “curve” defined by connecting the points by straight lines. The units of the AUC are the units of the Y axis times units of the X axis.
(§1) For EC50 data, the symbol “A” indicates a value of less than 0.2 μM; the symbol “B” indicates a value in the range of from 0.2 μM up to 1 μM; and the symbol “C” indicates a value of greater than 1 μM.

Mero14 cells = assay: Mero14 proliferation and cell viability assay (CTG); format: cell-based; details: 144 hours
Method: Mero14 cells were trypsinised, counted and plated at 400 cells/well in 200 μl of growth media in 96 well flat bottom tissue culture treated plates. The plated cells were incubated overnight at 37° C., 5% CO2 before being treated with compounds in triplicate for each assay point. 50 μl of the serially diluted compound was added to each well giving a final DMSO concentration of 0.5% per well and a total volume of 250 μl per well. The treated cells were incubated for 144 hours (6 days) at 37° C., 5% CO2. Following compound treatment the remaining viable cells were detected using the Promega CellTiter-Glo 2.0 assay as follows: 150 μl of media was removed from each of the wells to be assayed and 100 μl of room temperature CellTiter-Glo 2.0 reagent was added. The plate was placed on an orbital shaker at 500 rpm at room temperature for 2 minutes, and then incubated without shaking for a further 10 minutes at room temperature. 150 μl of cell lysate was removed from each well and dispensed into a single well of a white opaque 96 well plate. Luminescence at 545 nm was read using a BMG CLARIOstar plate reader. The luminescent signal was directly proportional to number of viable cells, the percent of viable cells relative to the DMSO control was then calculated for each assay point. Percent viability relative to DMSO control is plotted against compound concentration and a curve fitted with non-linear regression in GraphPad Prism software. EC50 and absolute IC50 values were calculated using GraphPad Prism software as follows: For EC50 values, a non-constrained four-parameter logistic curve fit was used (Sigmoidal, 4PL, X is concentration). For Absolute IC50 values the baseline was constrained to Y=0 and top at 100 (Absolute IC50, X is concentration). Area Under the Curve (AUC): Prism computed area-under-the-curve by the trapezoidal method. The analysis sees a fitted curve as simply a series of connected XY points. Prism simply computes the area under the “curve” defined by connecting the points by straight lines. The units of the AUC are the units of the Y axis times units of the X axis.
as §1

NCI-H226 cells = assay: Proliferation and cell viability assay, CellTiter-Glo 2.0 (CTG); format: cell-based, human; details: 144 hrs
Method: Cell proliferation of a TEAD dependent NF2-null mesothelioma cell line, NCI-H226 was assayed using two different protocols. Results were confirmed in two different TEAD-non-dependent lung cancer cell lines, H23 and H28, were used as non-responsive controls, as indicated:
a) CellTiter-Glo® 2.0 (Promega #G9243). The effect of the TEAD inhibitors disclosed herein on cell proliferation was determined in TEAD1-genetically dependent cell line NCI-H226 (responder cell line) and TEAD-independent cell lines (NCI-H23, HEK293T), as non-responder, negative control. Cells were seeded in 96-well plates (Thermo Scientific #167008) in growth media (RPMI-1640, Gibco #61870-010) for NCI-H226 and NCI-H23 or DMEM (Gibco #31966-021, HEK293T) with […] Heat Inactivated Fetal Bovine Serum (Gibco 10500-064) at 800 (NCI-H226 and HEK-293T) or 2000 (NCI-H23) cells per well at 37° C., […], humidified incubator; 24 hours later, fresh growth media containing test compound or DMSO vehicle was added and incubated with the cells for 144 hrs. TEAD inhibitor stocks were made at a 1000× fold excess in DMSO, and a dose response test compound dose range of 10,000 to 0.1 nM was used. Each treatment was carried out in triplicate. After 144 hrs of treatment, relative cell viability numbers were determined using the CellTiter-Glo 2.0 assay following the manufacturer's instructions. Test plates and CellTiter-Glo 2.0 reagent were allowed to equilibrate to room temperature. CellTiter-Glo 2.0 reagent was added at 1:1 reagent to media ratio to the 96-well cell plates, plates were placed on a plate shaker for 2 minutes and then incubated at room temperature for a further 10 minutes to allow complete cell lysis to occur. The mix was then transferred to white, 96-well luminometer assay plates (Greiner Bio One #655075). Luminescence was quantified using a CLARIOStar Plus multi-mode plate reader (BMG Labtech) in luminescence detection mode with the recommended settings (ultra-Glo pre-set: emission 545-50 nm with autofocus and enhanced dynamic range on). Relative cell density was expressed as a function of inhibitor concentration, with respect to DMSO-only control wells. Data where plotted using GraphPad Prism and IC50 values for the biological effect were calculated using the EC50 non-linear fit function using a sigmoidal, 4-parameter logistic, least squares fit with no constraints.
For IC50 and EC50 data “A” indicates a value of less than 0.2 μM; the symbol “B” indicates a value in the range of from 0.2 μM up to 1 μM; and the symbol “C” indicates a value of greater than 1 μM. ND: no data.

[1] = Homo sapiens, NCI-H226, responder cell line

Structure (SMILES) | EC50 (Mero82 cells) | EC50 (Mero14 cells) | EC50 (NCI-H226 cells; responder cell line) | EC50 (NCI-H226 cells; [1])
Cn1cnc(-c2cc(C3(C)NC(=O)NC3=O)ccc2Nc2ccc(C(F)(F)F)cc2)c1 (single isomer, unassigned) [Compound 15, 5-methyl-5-(3-(1-methyl-1H-imidazol-4-yl)-4-((4-(trifluoromethyl)phenyl)amino)phenyl)imidazolidine-2,4-dione] | < 200 nM | < 200 nM | < 200 nM | 
C=CC(=O)Nc1ccc(C)c(Oc2ccc(Cl)cc2)c1 [Compound 1-3, reference compound] | < 200 nM | < 200 nM |  | 
FC(F)(F)c1ccc(CN2CCC(C3CC(Br)=NO3)CC2)cc1 (stereo not shown) [Compound 1-2, reference compound] | > 1000 nM | 200 to 1000 nM |  | 
Cn1nnc(-c2cc([C@]3(C)CCNC3=O)ccc2Nc2ccc(C(F)(F)F)cc2)n1 (stereo in doubt) [Compound 20, 3-methyl-3-(3-(2-methyl-2H-tetrazol-5-yl)-4-((4-(trifluoromethyl)phenyl)amino)phenyl) pyrrolidin-2-one] | < 200 nM | < 200 nM |  | < 200 nM
Cn1cnc(-c2cc([C@@]3(C)CCNC3=O)ccc2Nc2ccc(C(F)(F)F)cc2)c1 (single isomer, unassigned) [Compound 5, 3-methyl-3-(3-(1-methyl-1H-imidazol-4-yl)-4-((4-(trifluoromethyl)phenyl)amino)phenyl)pyrrolidin-2-one] | < 200 nM | < 200 nM |  | < 200 nM
